Results published in patent US12522877B2, “Early detection of drug-resistant mycobacterium tuberculosis” (The Translational Genomics Research Institute, priority 2020, dated 2026).
Entries after “also recorded” stand apart in the source; their conditions may differ.

How the values were obtained:
[1] = tested on: M. tuberculosis isolates; parameters: species or system Mycobacterium tuberculosis
[2] = tested on: M. tuberculosis isolates; assay type: cell-based, Mycobacterium tuberculosis
[3] = tested on: M. tuberculosis isolates; assay type: cell-based, Mycobacterium tuberculosis; remark: listed apart in the source

NNC(=O)c1ccncc1 [Isoniazid]
GenoType MTBDRplus [1]: R | Genotype MTBDRplus result [1]: low-level isoniazid resistance

CO[C@H]1/C=C/O[C@@]2(C)Oc3c(C)c(O)c4c(O)c(c(/C=N/N5CCN(C)CC5)c(O)c4c3C2=O)NC(=O)/C(C)=C\C=C\[C@H](C)[C@H](O)[C@@H](C)[C@@H](O)[C@@H](C)[C@H](OC(C)=O)[C@@H]1C [Rifampicin]
GenoType MTBDRplus [1]: R

COc1nc2ccc(Br)cc2cc1[C@@H](c1ccccc1)[C@@](O)(CCN(C)C)c1cccc2ccccc12 [bedaquiline]
patients phenotypically and genotypically resistant to bedaquiline [2]: 47% | Phenotypic susceptibility to bedaquiline [3]: phenotypically susceptible; also recorded: phenotypically resistant
